We go through three molecules from publication PMC4774911, “Biochemical Screening of Five Protein Kinases from Plasmodium falciparum against 14,000 Cell-Active Compounds” (PLoS ONE, 2016).

Molecules are shown by their SMILES. Values joined by “and” are separate entries in the source; they are usually repeats but may differ in a detail not shown here. Equal values may be shown once. Where only a bound is given, the exact number is not on record here.

Among the targets are MAPK8 (Homo sapiens, UniProt P45983); CSNK2A1 (Homo sapiens, UniProt P68400); MAP3K1 (Homo sapiens, UniProt Q13233); LYN (Homo sapiens, UniProt P07948); PRKCA (Homo sapiens, UniProt P17252).
Common to all, as to assay: biochemical
The next assay concerns the target T1, IRAK4 (Homo sapiens, UniProt Q9NWZ3).
T1 sequence (Q9NWZ3 1-460): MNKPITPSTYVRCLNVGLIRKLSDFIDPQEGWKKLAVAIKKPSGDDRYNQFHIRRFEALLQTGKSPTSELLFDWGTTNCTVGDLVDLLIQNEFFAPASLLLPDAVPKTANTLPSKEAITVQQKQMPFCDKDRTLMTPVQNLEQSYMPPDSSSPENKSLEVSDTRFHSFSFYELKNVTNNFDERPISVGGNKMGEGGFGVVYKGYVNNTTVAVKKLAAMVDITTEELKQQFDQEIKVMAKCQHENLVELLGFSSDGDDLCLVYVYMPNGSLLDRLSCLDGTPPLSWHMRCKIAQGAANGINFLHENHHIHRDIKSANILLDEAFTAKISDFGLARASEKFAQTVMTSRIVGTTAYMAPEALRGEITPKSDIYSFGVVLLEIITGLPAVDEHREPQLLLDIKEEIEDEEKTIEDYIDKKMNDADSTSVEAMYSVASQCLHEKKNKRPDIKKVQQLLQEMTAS

Another assay has as its target T2, EPHB4 (Homo sapiens, UniProt P54760).
T2 sequence (P54760 1-987): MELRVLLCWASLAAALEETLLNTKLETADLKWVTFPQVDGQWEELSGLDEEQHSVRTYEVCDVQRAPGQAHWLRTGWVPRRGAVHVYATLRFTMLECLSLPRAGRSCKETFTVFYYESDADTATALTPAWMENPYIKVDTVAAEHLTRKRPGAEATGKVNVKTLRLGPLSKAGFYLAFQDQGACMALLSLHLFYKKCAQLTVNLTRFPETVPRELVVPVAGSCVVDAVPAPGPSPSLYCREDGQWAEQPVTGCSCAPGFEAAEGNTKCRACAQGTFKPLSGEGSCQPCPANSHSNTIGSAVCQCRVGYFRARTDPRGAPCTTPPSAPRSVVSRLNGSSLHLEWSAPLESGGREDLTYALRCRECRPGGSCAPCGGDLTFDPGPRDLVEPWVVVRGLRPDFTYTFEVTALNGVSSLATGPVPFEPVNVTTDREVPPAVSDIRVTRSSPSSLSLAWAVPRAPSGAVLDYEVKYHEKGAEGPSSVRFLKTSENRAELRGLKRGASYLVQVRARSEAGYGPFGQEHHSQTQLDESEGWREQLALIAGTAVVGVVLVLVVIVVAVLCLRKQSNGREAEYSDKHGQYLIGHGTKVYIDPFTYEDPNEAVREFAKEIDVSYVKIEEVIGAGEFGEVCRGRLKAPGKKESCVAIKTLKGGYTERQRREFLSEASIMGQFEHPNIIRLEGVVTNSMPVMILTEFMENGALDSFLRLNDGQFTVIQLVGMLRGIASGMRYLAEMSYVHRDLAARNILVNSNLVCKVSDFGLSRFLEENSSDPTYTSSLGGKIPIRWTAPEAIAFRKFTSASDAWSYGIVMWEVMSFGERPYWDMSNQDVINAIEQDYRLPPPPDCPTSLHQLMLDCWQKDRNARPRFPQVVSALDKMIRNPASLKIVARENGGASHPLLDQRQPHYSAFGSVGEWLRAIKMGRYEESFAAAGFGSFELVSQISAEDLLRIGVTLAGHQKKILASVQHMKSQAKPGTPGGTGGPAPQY

The next assay concerns the target T3, ACVR1 (Homo sapiens, UniProt Q04771).
T3 sequence (Q04771 1-509): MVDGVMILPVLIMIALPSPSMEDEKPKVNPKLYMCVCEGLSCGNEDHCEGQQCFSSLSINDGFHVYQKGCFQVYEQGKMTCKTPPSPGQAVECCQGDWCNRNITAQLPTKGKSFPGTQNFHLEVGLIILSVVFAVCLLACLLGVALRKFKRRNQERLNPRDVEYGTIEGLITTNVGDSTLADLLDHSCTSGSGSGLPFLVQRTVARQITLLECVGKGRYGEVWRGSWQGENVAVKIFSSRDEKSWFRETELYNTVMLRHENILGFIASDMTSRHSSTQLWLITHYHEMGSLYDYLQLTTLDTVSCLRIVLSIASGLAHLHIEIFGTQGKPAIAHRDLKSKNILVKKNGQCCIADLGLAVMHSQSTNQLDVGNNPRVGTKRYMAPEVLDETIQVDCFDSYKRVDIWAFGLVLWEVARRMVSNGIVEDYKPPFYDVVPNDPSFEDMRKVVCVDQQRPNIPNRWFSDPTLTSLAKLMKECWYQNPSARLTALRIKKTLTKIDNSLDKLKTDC

A further assay concerns the target T4, ULK3 (Homo sapiens, UniProt Q6PHR2).
T4 sequence (Q6PHR2 1-472): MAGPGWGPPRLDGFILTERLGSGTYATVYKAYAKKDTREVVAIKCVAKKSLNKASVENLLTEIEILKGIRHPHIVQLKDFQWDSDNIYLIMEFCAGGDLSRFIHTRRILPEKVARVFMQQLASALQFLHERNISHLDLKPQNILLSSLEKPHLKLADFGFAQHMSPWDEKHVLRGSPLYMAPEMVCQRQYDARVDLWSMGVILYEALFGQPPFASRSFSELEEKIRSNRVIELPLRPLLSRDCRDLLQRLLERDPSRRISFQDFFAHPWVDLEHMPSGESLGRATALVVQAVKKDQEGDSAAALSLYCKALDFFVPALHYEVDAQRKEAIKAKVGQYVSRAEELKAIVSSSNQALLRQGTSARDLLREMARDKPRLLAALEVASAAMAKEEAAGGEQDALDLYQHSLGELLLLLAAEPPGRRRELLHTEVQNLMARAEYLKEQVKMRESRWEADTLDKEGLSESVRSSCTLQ

MAP3K1, sequence (Q13233 whole entry): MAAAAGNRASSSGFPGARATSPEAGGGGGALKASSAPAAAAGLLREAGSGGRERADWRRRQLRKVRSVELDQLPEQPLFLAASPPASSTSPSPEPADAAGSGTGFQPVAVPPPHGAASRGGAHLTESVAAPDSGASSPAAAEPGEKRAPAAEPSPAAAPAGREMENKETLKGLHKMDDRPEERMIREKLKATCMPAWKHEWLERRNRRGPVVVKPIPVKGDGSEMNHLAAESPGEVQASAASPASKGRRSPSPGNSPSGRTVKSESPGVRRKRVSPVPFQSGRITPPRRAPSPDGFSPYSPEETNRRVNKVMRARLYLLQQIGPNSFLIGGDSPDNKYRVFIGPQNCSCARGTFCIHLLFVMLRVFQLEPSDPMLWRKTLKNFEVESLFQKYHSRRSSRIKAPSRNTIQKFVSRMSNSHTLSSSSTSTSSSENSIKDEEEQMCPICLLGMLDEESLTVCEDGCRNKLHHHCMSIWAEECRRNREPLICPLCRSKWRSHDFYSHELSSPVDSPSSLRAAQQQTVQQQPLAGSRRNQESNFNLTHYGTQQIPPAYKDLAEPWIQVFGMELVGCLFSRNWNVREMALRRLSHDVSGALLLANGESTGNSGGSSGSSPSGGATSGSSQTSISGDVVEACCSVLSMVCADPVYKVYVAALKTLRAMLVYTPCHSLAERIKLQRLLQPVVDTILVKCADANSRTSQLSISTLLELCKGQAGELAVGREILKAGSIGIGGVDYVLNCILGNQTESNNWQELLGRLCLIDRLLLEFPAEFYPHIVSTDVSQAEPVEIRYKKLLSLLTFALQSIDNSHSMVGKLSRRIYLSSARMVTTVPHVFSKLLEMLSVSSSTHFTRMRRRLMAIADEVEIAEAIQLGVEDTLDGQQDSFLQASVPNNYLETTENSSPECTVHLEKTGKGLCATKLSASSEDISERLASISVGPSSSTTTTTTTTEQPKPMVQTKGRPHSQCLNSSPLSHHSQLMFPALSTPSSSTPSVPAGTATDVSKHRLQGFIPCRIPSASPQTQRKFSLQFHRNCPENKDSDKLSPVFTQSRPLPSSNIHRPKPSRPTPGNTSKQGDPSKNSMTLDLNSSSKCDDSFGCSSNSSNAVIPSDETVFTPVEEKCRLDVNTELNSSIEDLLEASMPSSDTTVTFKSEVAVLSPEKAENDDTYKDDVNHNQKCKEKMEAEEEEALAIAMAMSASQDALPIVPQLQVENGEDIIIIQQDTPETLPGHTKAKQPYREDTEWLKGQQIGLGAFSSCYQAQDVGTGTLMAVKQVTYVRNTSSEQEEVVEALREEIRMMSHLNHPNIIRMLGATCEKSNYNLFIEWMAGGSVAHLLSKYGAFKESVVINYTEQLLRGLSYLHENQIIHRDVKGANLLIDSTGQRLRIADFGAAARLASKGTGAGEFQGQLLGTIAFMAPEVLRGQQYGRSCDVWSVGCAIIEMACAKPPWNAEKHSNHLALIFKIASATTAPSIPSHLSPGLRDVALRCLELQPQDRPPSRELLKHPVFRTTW
MAPK8, sequence (P45983 whole entry): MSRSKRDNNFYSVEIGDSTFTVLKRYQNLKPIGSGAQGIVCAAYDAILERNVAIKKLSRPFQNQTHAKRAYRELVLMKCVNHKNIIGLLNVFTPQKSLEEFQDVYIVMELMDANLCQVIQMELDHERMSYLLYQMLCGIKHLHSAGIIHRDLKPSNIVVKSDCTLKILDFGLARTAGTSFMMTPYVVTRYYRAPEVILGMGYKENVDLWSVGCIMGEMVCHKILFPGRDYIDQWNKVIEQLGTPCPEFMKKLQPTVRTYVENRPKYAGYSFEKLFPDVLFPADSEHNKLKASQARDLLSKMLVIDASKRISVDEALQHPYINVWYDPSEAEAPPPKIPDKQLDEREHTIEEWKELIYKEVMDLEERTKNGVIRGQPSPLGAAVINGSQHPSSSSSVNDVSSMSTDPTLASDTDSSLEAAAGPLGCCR
LYN, sequence (P07948 whole entry): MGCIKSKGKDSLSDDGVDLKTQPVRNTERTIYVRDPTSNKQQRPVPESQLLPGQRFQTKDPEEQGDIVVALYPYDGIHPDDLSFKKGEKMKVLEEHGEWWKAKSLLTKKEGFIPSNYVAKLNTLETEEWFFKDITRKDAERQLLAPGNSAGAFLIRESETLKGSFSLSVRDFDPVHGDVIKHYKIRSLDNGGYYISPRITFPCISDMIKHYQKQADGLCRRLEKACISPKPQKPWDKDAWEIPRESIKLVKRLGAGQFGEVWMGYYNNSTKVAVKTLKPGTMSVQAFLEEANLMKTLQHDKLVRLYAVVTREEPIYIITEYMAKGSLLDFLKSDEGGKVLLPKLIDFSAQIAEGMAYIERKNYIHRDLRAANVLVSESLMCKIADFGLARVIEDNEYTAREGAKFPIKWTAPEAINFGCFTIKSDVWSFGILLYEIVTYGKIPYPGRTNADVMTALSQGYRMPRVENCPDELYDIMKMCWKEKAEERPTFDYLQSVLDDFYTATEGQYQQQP
CSNK2A1, sequence (P68400 whole entry): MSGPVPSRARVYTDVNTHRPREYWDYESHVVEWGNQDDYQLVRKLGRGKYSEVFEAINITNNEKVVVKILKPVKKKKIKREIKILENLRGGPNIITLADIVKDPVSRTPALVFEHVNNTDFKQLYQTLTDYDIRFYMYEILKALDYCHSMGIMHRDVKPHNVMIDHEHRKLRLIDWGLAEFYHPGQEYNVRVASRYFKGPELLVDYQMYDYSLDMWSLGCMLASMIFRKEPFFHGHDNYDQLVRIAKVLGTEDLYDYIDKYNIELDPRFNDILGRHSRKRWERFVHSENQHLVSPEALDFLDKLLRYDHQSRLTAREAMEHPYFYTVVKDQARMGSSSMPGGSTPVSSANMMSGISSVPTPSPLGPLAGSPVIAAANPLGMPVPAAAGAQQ

The IC50 is the concentration needed to halve the response being measured. As to `CN1CCN(c2ccc(Nc3ncc(C#N)c(Nc4ccccc4C(N)=O)n3)cc2)CC1.Cl` [TCMDC-134116], the IC50 against MAPK8 was 1.5 µM and 5.1 µM; on IRAK4, 0.17 µM; at EPHB4 it was 4.3 µM; at CSNK2A1, ≤ 0.032 µM and 0.034 µM; at MAP3K1, 1.6 µM; at LYN, 0.28 µM and 0.35 µM. Besides, the IC50 against ACVR1 is 8.2 µM; against PRKCA it was 0.74 µM; against ULK3, 0.06 µM and 0.095 µM.

For `Cl.NCC1(c2nc(-c3ccc(Cl)c(O)c3)c(-c3ccncc3)[nH]2)CCCCC1` [TCMDC-141154], the half-inhibitory concentration (IC50) is more than 20 µM against MAPK8; more than 20 µM at IRAK4; 5.3 µM on EPHB4; more than 20 µM at CSNK2A1; more than 20 µM against MAP3K1; 1.3 µM on LYN. The IC50 at ACVR1, on PRKCA and at ULK3 was more than 20 µM in each case.

For the molecule `CN(C)CC(O)COc1ccc(Nc2ncc([N+](=O)[O-])c(Nc3ccccc3O)n2)cc1.O=C(O)C(F)(F)F` (stereo not drawn) [TCMDC-141399], the IC50 was more than 20 µM on MAPK8; more than 20 µM at IRAK4; more than 20 µM at EPHB4; 0.092 µM against CSNK2A1; more than 20 µM against MAP3K1; more than 20 µM against LYN. The IC50 at ACVR1, at PRKCA and against ULK3 was more than 20 µM throughout.
